The source of these data is patent publication US10533015B1, “Opioid receptor antagonist prodrugs” (Nirsum Laboratories, Inc., priority 2019, dated 2020).

Data set [1] in a line: Liver S9 fraction stability, monkey. It is filed as in vitro ADME, cynomolgus monkey. To be noted: monkey liver S9, 1.0 mg/ml S9 protein, 2 μM, 37° C. As for the experimental part: (§1) Liver S9 fraction stability determination of the test compounds in dog, cynomolgus monkey and human is performed using HPLC-MS. Test compound (2 μM, 0.1% DMSO, 1% Methanol final concentration) was assessed for stability in a 50 μl phosphate buffer containing 1.0 mg/ml S9 protein from each of the three species and 5 mM D-saccharic acid-1, 4-lactone. Samples were incubated at 37° C. for 60 minutes and the % compound remaining was assessed.

The nature of data set [2]: Liver S9 fraction stability, dog. Type of data set: in vitro ADME. To be noted: dog liver S9, 1.0 mg/ml S9 protein, 2 μM, 37° C. As for the experimental part: as §1
Data set [3] can be described thus: Plasma stability assay, human plasma. As to conditions: 2 μM, 37° C. Type of data set: in vitro ADME. As to the method:
(§2) Plasma stability determination of the test compounds in rat, dog, cynomolgus monkey and human plasma is performed using HPLC-MS. For rat, incubations are carried out in 96-well polypropylene plates in 5 aliquots of 70 μL each (one for each time point). […] Five time points are analyzed (0, 15, 120, 480 and 1440 min). […] All incubations are performed in duplicates. The samples are analyzed by HPLC-MS. The percentage of parent compound remaining after incubation in plasma is determined.

Data set [4] is described as follows: Plasma stability assay, dog plasma. As to conditions: 2 μM, 37° C. Type of data set: in vitro ADME. As to the method: as §2
Data set [5] can be described thus: Liver S9 fraction stability, human. Type of data set: in vitro ADME. As to conditions: human liver S9, 1.0 mg/ml S9 protein, 2 μM, 37° C. As for the experimental part:
as §1

Data set [6] can be described thus: Plasma stability assay, monkey plasma. It is filed as in vitro ADME, cynomolgus monkey. To be noted: 2 μM, 37° C. As to the method:
as §2

Data set [7] in a line: Plasma stability assay, rat plasma. As to conditions: 10 μM, 37° C. Type of data set: in vitro ADME. The procedure, abridged: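 In rat plasma, five time points up to 1440 min (0, 15, 120, 480, 1440) were analysed. Human, dog and cynomolgus plasma received 2 μM compound at 1% final solvent, 37 °C, over 0–120 min (0, 10, 30, 60, 120). Values are % parent left, HPLC-MS, n=2.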

Another data set can be described thus: physchem. As to conditions: thermodynamic from solid; for solubility at 24 h: 25 °C, obs. temp. 25 °C; for solubility at 24 h / solubility: heating temp. 60 °C; for solubility: obs. temp. 40 °C.
For data set [8] the following is noted: for Equilibrium solubility (mg/mL) Water: temperatures N/A.
The nature of data set [9]: Polymorph screening of solid state drug substances. To be noted: for Dry method and appearance: after stirring 50 °C 72 hours, dried solid; for XRPD results (Dried): dried solid after 50 °C 72 hours; for Visual observation 50° C. / Visual observation RT: target conc. 100 mg/ml.
Where [10] appears, read: heating temp. 60 °C, obs. temp. 25 °C.
Setting [11] is: heating temp. 60 °C, obs. temp. 40 °C.
[12] abbreviates: heating temp. 40 °C, obs. temp. 40 °C.

Molecules are shown by their SMILES. Converted amounts (≈) assume the structure as drawn. Where two headings read alike, the source gives them in different places.

Regarding `CCCCCCCCCCCCCCCC(=O)OC1CCCn2c1nc(C)c(CCN1CCC(c3noc4cc(F)ccc34)CC1)c2=O` (centres unmarked) [Paliperidone palmitate, reference compound], the “% remaining at 60 minutes” value was determined as 57.4% in data set [1], 56.4% in data set [2] and 47.8% in data set [5]. Also, the “% remaining at time point” value is listed as 100% in data set [3] (0 min); 103.7% in data set [3] (15 min (head)); 97.6% in data set [3] (120 min (head)); 109.1% in [3] (480 min (head)); 104.1% in data set [3] (1440 min (head)); 100% in [4] (0 min). The “% remaining at time point” value turned out to be 91.2% in data set [4] (15 min (head)); 88.4% in data set [4] (120 min (head)); 95.9% in [4] (480 min (head)); 93.1% in data set [4] (1440 min (head)); 100% in data set [6] (0 min); 92% in data set [6] (15 min (head)). In addition, the “% remaining at time point” value in data set [6] (120 min (head)) is given as 89.5%; in [6] (480 min (head)), 98.4%; in data set [6] (1440 min (head)), 92.5%.
With `C=C1CC[C@@]2(O)C3Cc4ccc(OC(=O)CCCCCCCCCCC)c5c4[C@@]2(CCN3CC2CC2)[C@H]1O5` [Compound 59, (4aS,7aS,12bS)-3-(cyclopropylmethyl)-4a-hydroxy-7-methylene-2,3,4,4a,5,6,7,7a-octahydro-1H-4,12-methanobenzofuro[3,2-e]isoquinolin-9-yl dodecanoate, reference compound], the “% remaining at time point” value in [7] (0 min) is on record as 100%; in [7] (15 min), 5.9%; in [7] (120 min) it was 0.7%; in data set [7] (480 min) it was 0.2%; in [7] (1440 min), 0%. The solubility at 24 h in the data set “physchem” (oil or lipid, Approximate Solubility (mg/mL) in Excipient: Cottonseed oil, Cottonseed oil) was > 414 mg/mL; in the data set “physchem” (oil or lipid, Approximate Solubility (mg/mL) in Excipient: Sesame oil, Sesame oil), > 393 mg/mL. In “physchem” (40 °C, water), the solubility (thermodynamic) is < 0.001 mg/mL.
With `CCCCCCCCCCCCCCCC(=O)Oc1ccc2c3c1O[C@H]1C(=O)CC[C@@]4(O)C(C2)N(CC2CC2)CC[C@]314` [Compound 55, (4aS,7aR,12bS)-3-(cyclopropylmethyl)-4a-hydroxy-7-oxo-2,3,4,4a,5,6,7,7a-octahydro-1H-4,12-methanobenzofuro[3,2-e]isoquinolin-9-yl palmitate], the “% remaining at time point” value is 100% in [7] (0 min); 77.3% in data set [7] (15 min); 47.2% in data set [7] (120 min); 27.1% in data set [7] (480 min); 15.6% in data set [7] (1440 min). Further, the “Approximate Solubility (mg/mL) in Excipient: Cottonseed oil” value is on record as <50 mg/mL in data set [8] (setting [10]) and >400.1 mg/mL in [8] (setting [11]). Further, in data set [8] (setting [11]), the “Approximate Solubility (mg/mL) in Excipient: Ethanol” value is reported as >401.1 mg/mL. Further, the “Approximate Solubility (mg/mL) in Excipient: Sesame oil” value in data set [8] (setting [10]) is reported as <50 mg/mL; in data set [8] (setting [11]), >394.8 mg/mL. For the same molecule, the “Equilibrium solubility (mg/mL) Water” value in data set [8] (compound after slurry in EtOAc) is on record as <0.0005 mg/mL. In addition, the “Dry method and appearance” value in data set [9] (Acetone), in data set [9] (EtOAc), in [9] (Heptane), in data set [9] (Isopropanol) and in data set [9] (MTBE) was “Evaporation/white powder” each time. The “XRPD results (Dried)” value in data set [9] (Acetone), in [9] (EtOAc), in [9] (Heptane), in data set [9] (Isopropanol) and in data set [9] (MTBE) was “Pattern B” throughout. The “Visual observation 50° C.” value in [9] (Acetone), in data set [9] (EtOAc), in [9] (Heptane), in [9] (Isopropanol) and in data set [9] (MTBE) was “Clear” throughout. In addition, the “Visual observation RT” value in [9] (Acetone) is reported as “Slurry”; in [9] (EtOAc), “Slurry”; in data set [9] (Heptane), “Slurry”; in data set [9] (Isopropanol) it was “Slurry”; in data set [9] (MTBE), “Clear”.
As for `C=C1CC[C@@]2(O)C3Cc4ccc(OC(=O)CCCCCCCCCCCCCCCCCCCCC)c5c4[C@@]2(CCN3CC2CC2)[C@H]1O5` [Compound 14, (4aS,7aS,12bS)-3-(cyclopropylmethyl)-4a-hydroxy-7-methylene-2,3,4,4a,5,6,7,7a-octahydro-1H-4,12-methanobenzofuro[3,2-e]isoquinolin-9-yl docosanoate], the “% remaining at time point” value in data set [7] (0 min) is on record as 100%; in data set [7] (15 min), 94%; in data set [7] (120 min), 112%; in [7] (480 min), 107%; in data set [7] (1440 min), 120%. Moreover, the results for the “Approximate Solubility (mg/mL) in Excipient: Cottonseed oil” value in data set [8] (setting [12]) and in [8] (setting [11]) were <50 mg/mL and <25 mg/mL, respectively. Also, in [8] (setting [12]), the “Approximate Solubility (mg/mL) in Excipient: Ethanol” value fell in the range of 69 to 83 mg/mL. In addition, the “Approximate Solubility (mg/mL) in Excipient: Sesame oil” value in [8] (setting [12]) was <51 mg/mL; in [8] (setting [11]), <25 mg/mL. For the same molecule, the “Equilibrium solubility (mg/mL) Water” value in data set [8] (compound after slurry in EtOAc) and in data set [8] (compound after slurry in Heptane) was <0.0005 mg/mL throughout. Moreover, the “Dry method and appearance” value in [9] (Acetone) is “Evaporation/white powder”; in data set [9] (EtOAc) it was “Evaporation/white powder”; in [9] (Heptane), “Centrifugation/white powder”; in data set [9] (Isopropanol), “Evaporation/white powder”; in data set [9] (MTBE) it was “Evaporation/white powder”. In addition, the “XRPD results (Dried)” value is listed as “Pattern A” in data set [9] (Acetone); “Pattern A” in data set [9] (EtOAc); “Pattern B” in data set [9] (Heptane); “Pattern A” in [9] (Isopropanol); “Pattern A” in data set [9] (MTBE). The “Visual observation 50° C.” value in data set [9] (Acetone) is on record as “Clear”; in [9] (EtOAc) it was “Clear”; in data set [9] (Heptane), “Slurry”; in [9] (Isopropanol), “Clear”; in data set [9] (MTBE), “Clear”. Moreover, the “Visual observation RT” value is “Slimy” in data set [9] (Acetone); “Slurry” in data set [9] (EtOAc); “Slurry” in [9] (Heptane); “Clear” in [9] (Isopropanol); “Clear” in [9] (MTBE).
Take `C=C1CC[C@@]2(O)[C@H]3Cc4ccc(O)c5c4[C@@]2(CCN3CC2CC2)[C@H]1O5` [nalmefene, 17-cyclopropylmethyl-4,5α-epoxy-6-methylenemorphinan-3,14-diol]: the solubility in “physchem” (40 °C, oil or lipid, Approximate Solubility (mg/mL) in Excipient: Cottonseed oil, Cottonseed oil) was < 25 mg/mL; in “physchem” (40 °C, oil or lipid, Approximate Solubility (mg/mL) in Excipient: Sesame oil, Sesame oil), < 25.5 mg/mL; in “physchem” (40 °C, organic solvent or mixture, Approximate Solubility (mg/mL) in Excipient: Ethanol, Ethanol) it was 102 to 137 mg/mL (≈ 300 to 404 mM).

The term solubility denotes the dissolved amount per volume that the medium holds. In general, solubility (thermodynamic) refers to the concentration in solution at equilibrium with solid.
